Source: patent US11459329B2, “Imidazopyridazine and imidazopyridine compounds and uses thereof” (Incyte Corporation, priority 2018, dated 2022)

Target: ALK2 (aa 147-end) (Homo sapiens (Human), UniProt Q04771)
Test: ALK2 HTRF Assay
Type: biochemical
Conditions: not given
Description: The enzymatic assays were conducted in white 384-well polystyrene plates in a final volume of 8 μL. The inhibitors were serially diluted in DMSO and added to the plate wells prior to addition of the other reaction components. The assays were carried out at 25° C. in the assay buffer (50 mM HEPES, pH 7.0, 10% Glycerol, 0.01% Brij50, 10 mM MgCl2, 1 mM EGTA, 5 mM DTT, and 0.01% BSA), containing 50 nM LANCE Ultra ULight™-DNA Topoisomerase 2-alpha peptide (Perkin Elmer TRF0130), and 3 μM ATP. The final concentration of DMSO in the assay was 1% and the enzyme concentration was 0.5 nM for ALK2. […] […] IC50 determination was performed by fitting percent control activity versus the log of the inhibitor concentration using the IDBS XLFit and GraphPad Prism 5.0 software.

ALK2 (aa 147-end), sequence (Q04771 147-509): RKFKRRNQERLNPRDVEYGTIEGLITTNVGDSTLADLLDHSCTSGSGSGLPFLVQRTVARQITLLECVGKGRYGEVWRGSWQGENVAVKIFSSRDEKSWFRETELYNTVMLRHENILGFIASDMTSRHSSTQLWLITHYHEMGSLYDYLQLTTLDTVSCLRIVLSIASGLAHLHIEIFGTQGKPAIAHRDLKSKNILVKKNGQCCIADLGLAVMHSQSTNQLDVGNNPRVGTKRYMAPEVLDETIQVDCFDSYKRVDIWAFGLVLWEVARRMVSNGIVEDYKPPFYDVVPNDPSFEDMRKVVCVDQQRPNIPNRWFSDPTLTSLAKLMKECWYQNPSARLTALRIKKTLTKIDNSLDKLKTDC

Row | Compound | IC50 [nM]
1 | COCc1nn2c(-c3ccnc4ccccc34)cnc2cc1-c1ccc(N2CCNCC2)cc1 [Example 8, 4-(6-(Methoxymethyl)-7-(4-(piperazin-1-yl)phenyl)imidazo[1,2-b]pyridazin-3-yl)quinoline] | 1 to 5

Same assay, conditions: 3 μM ATP, 0.5 nM ALK2, 2 hr, 25° C.; read-out: ALK2 IC50

Row | IC50 [nM] | Compound
2 | < 1 | Cc1nn2c(-c3ccnc4ncccc34)cnc2cc1-c1ccc(N2CCNCC2)cc1 [Example 27, 4-(6-methyl-7-(4-(piperazin-1-yl)phenyl)imidazo[1,2-b]pyridazin-3-yl)-1,8-naphthyridine]
3 | 5 to 100 | Cc1nn2c(-c3ccc(C#N)c4ncccc34)cnc2cc1-c1ccc(N2CCNCC2)cc1 [Example 28, 5-(6-methyl-7-(4-(piperazin-1-yl)phenyl)imidazo[1,2-b]pyridazin-3-yl)quinoline-8-carbonitrile]
4 | 1 to 5 | CNC(=O)c1ccc2c(-c3cnc4cc(-c5ccc(N6CCNCC6)cc5)c(C)nn34)ccnc2c1 [Example 16, N-methyl-4-(6-methyl-7-(4-(piperazin-1-yl)phenyl)imidazo[1,2-b]pyridazin-3-yl)quinoline-7-carboxamide]
5 | > 100 | Cc1nn2c(-c3ccnc4c(C(=O)NCCO)cccc34)cnc2cc1-c1ccc(N2CCNCC2)cc1 [Example 31, N-(2-hydroxyethyl)-4-(6-methyl-7-(4-(piperazin-1-yl)phenyl)imidazo[1,2-b]pyridazin-3-yl)quinoline-8-carboxamide]
6 | 5 to 100 | Cc1nn2c(-c3ccnc4cc(CO)ccc34)cnc2cc1-c1ccc(N2CCNCC2)cc1 [Example 26, (4-(6-methyl-7-(4-(piperazin-1-yl)phenyl)imidazo[1,2-b]pyridazin-3-yl)quinolin-7-yl)methanol]
7 | < 1 | COC(=O)c1nn2c(-c3ccnc4ccccc34)cnc2cc1-c1ccc(N2CCNCC2)cc1 [Example 2, Methyl 7-(4-(piperazin-1-yl)phenyl)-3-(quinolin-4-yl)imidazo[1,2-b]pyridazine-6-carboxylate]
8 | < 1 | OCc1nn2c(-c3ccnc4ccccc34)cnc2cc1-c1ccc(N2CCNCC2)cc1 [Example 7, (7-(4-(Piperazin-1-yl)phenyl)-3-(quinolin-4-yl)imidazo[1,2-b]pyridazin-6-yl)methanol]
9 | 5 to 100 | C[C@]1(O)CC[C@H](NC(=O)c2nn3c(-c4ccnc5ccccc45)cnc3cc2-c2ccc(N3CCNCC3)cc2)CC1 [Example 3, N-((1R,4R)-4-Hydroxy-4-methylcyclohexyl)-7-(4-(piperazin-1-yl)phenyl)-3-(quinolin-4-yl)imidazo[1,2-b]pyridazine-6-carboxamide]

The remaining lines, values behind:

Row | Compound | IC50 [nM]
10 | Cc1nn2c(-c3ccnc4cc(-c5ccncc5)ccc34)cnc2cc1-c1cnn([C@H]2CC[C@H](O)CC2)c1 [Example 10, (trans)-4-(4-(6-Methyl-3-(7-(pyridin-4-yl)quinolin-4-yl)imidazo[1,2-b]pyridazin-7-yl)-1H-pyrazol-1-yl)cyclohexan-1-ol] | 1 to 5
11 | Cc1nn2c(-c3ccnc4cc(-c5ccncc5)ccc34)cnc2cc1-c1ccc(N2CCN(CCO)CC2)cc1 [Example 11, 2-(4-(4-(6-Methyl-3-(7-(pyridin-4-yl)quinolin-4-yl)imidazo[1,2-b]pyridazin-7-yl)phenyl)piperazin-1-yl)ethan-1-ol] | < 1
12 | CCn1cnc(-c2ccc3c(-c4cnc5cc(-c6ccc(CN7CCO[C@@H](C)C7)cc6)c(C)nn45)ccnc3n2)c1 [Example 58, (S)-4-(4-(3-(7-(1-ethyl-1H-imidazol-4-yl)-1,8-naphthyridin-4-yl)-6-methylimidazo[1,2-b]pyridazin-7-yl)benzyl)-2-methylmorpholine] | < 1
13 | CCn1cnc(-c2ccc3c(-c4cnc5cc(-c6ccc(CN7CC(F)(F)C7)cc6)c(C)nn45)ccnc3n2)c1 [Example 57] | 1 to 5
14 | Cc1cc(-c2ccc3c(-c4cnc5cc(-c6ccc(CN7CCOCC7)cc6)c(C)nn45)ccnc3n2)n[nH]1 [Example 49, 4-(4-(6-methyl-3-(7-(5-methyl-1H-pyrazol-3-yl)-1,8-naphthyridin-4-yl)imidazo[1,2-b]pyridazin-7-yl)benzyl)morpholine] | < 1
15 | CCn1cnc(-c2ccc3c(-c4cnc5cc(-c6ccc(CN7CCOCC7)cc6)c(C)nn45)ccnc3n2)c1 [Example 53, 4-(4-(3-(7-(1-Ethyl-1H-imidazol-4-yl)-1,8-naphthyridin-4-yl)-6-methylimidazo[1,2-b]pyridazin-7-yl)benzyl)morpholine] | 1 to 5
16 | Cc1nn2c(-c3ccnc4nc(-c5cnccn5)ccc34)cnc2cc1-c1cnn(C2CCOCC2)c1 [Example 44, 5-(6-Methyl-7-(1-(tetrahydro-2H-pyran-4-yl)-1H-pyrazol-4-yl)imidazo[1,2-b]pyridazin-3-yl)-2-(pyrazin-2-yl)-1,8-naphthyridine] | 1 to 5
17 | Cc1nn2c(-c3ccnc4c3CCN4C(=O)c3ccncc3)cnc2cc1-c1cnn(C2CCOCC2)c1 [Example 32, (4-(6-methyl-7-(1-(tetrahydro-2H-pyran-4-yl)-1H-pyrazol-4-yl)imidazo[1,2-b]pyridazin-3-yl)-2,3-dihydro-1H-pyrrolo[2,3-b]pyridin-1-yl)(pyridin-4-yl)methanone] | 5 to 100
18 | Cc1nn2c(-c3ccnc4nc(-c5cnccn5)ccc34)cnc2cc1-c1cnn(C(C)C)c1 [Example 43, 5-(7-(1-Isopropyl-1H-pyrazol-4-yl)-6-methylimidazo[1,2-b]pyridazin-3-yl)-2-(pyrazin-2-yl)-1,8-naphthyridine] | 1 to 5
19 | CCn1cc(-c2cc3ncc(-c4ccnc5nc(-c6ccccn6)ccc45)n3nc2C)cn1 [Example 39, 5-(7-(1-Ethyl-1H-pyrazol-4-yl)-6-methylimidazo[1,2-b]pyridazin-3-yl)-2-(pyridin-2-yl)-1,8-naphthyridine] | 1 to 5
20 | Cc1nn2c(-c3ccnc4nc(-c5ccn(C)n5)ccc34)cnc2cc1-c1ccc(CN2CCC2)cc1 [Example 46, 5-(7-(4-(Azetidin-1-ylmethyl)phenyl)-6-methylimidazo[1,2-b]pyridazin-3-yl)-2-(1-methyl-1H-pyrazol-3-yl)-1,8-naphthyridine] | 5 to 100
21 | Cc1cnn(-c2ccc3c(-c4cnc5cc(-c6ccc(CN(C)C)cc6)c(C)nn45)ccnc3n2)n1 [Example 63, N,N-dimethyl-1-(4-(6-methyl-3-(7-(4-methyl-2H-1,2,3-triazol-2-yl)-1,8-naphthyridin-4-yl)imidazo[1,2-b]pyridazin-7-yl)phenyl)methanamine] | 1 to 5
22 | Cc1cnn(-c2ccc3c(-c4cnc5cc(-c6cnn(C(C)C)c6)c(C)nn45)ccnc3n2)n1 [Example 61, 5-(7-(1-Isopropyl-1H-pyrazol-4-yl)-6-methylimidazo[1,2-b]pyridazin-3-yl)-2-(4-methyl-2H-1,2,3-triazol-2-yl)-1,8-naphthyridine] | 1 to 5
23 | Cc1cnn(-c2ccc3c(-c4cnc5cc(-c6cnn(C7CCOCC7)c6)c(C)nn45)ccnc3n2)n1 [Example 62, 2-(4-Methyl-2H-1,2,3-triazol-2-yl)-5-(6-methyl-7-(1-(tetrahydro-2H-pyran-4-yl)-1H-pyrazol-4-yl)imidazo[1,2-b]pyridazin-3-yl)-1,8-naphthyridine] | < 1
24 | Cc1nn2c(-c3ccnc4nc(-c5cnccn5)ccc34)cnc2cc1-c1cnn([C@H]2CC[C@H](O)CC2)c1 [Example 41, (1R,4R)-4-(4-(6-Methyl-3-(7-(pyrazin-2-yl)-1,8-naphthyridin-4-yl)imidazo[1,2-b]pyridazin-7-yl)-1H-pyrazol-1-yl)cyclohexan-1-ol] | 1 to 5
